Assays:
Assay in all cases: pIC50, kinobeads binding competition
[1] = target: T1, EPHB4 (UniProt P54760); conditions: cell material: Lysate mix
T1 sequence (whole entry): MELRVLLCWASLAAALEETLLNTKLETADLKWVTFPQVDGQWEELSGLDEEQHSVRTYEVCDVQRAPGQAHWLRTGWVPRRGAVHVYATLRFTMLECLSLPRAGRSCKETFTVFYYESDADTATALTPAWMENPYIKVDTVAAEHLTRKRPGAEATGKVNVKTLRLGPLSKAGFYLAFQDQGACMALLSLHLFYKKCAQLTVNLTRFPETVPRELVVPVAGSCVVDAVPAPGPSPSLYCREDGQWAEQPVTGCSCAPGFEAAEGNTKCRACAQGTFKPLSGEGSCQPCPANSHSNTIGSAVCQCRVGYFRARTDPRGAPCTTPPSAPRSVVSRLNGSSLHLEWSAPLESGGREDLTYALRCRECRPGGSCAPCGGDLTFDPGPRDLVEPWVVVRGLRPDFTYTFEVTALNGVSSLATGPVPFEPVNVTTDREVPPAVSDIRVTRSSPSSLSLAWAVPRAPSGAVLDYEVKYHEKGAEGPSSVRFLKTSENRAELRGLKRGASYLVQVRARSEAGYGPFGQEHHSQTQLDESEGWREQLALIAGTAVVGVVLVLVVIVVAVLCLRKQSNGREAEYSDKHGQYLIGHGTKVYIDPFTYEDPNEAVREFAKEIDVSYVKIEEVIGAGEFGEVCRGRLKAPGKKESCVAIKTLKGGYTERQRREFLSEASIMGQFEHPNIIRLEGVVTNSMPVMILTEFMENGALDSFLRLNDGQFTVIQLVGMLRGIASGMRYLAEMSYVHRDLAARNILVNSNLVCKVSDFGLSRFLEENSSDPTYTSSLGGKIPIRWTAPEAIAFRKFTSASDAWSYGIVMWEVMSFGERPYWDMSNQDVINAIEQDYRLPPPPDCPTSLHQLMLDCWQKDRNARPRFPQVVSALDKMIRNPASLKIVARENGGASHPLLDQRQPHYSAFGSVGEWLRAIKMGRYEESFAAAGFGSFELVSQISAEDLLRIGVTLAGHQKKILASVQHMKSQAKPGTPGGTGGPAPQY
Summary of the method: (§1)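 pIC50 was obtained by fitting fold changes against vehicle to logistic dose-response curves with the R drc package, using biological duplicates. Kinobeads-bound proteins were digested and measured by TMT10 LC-MS/MS. Before this, either living Jurkat cells received nine compound concentrations (top 30 μM, 1:4 steps) for 60 min at 37 °C prior to lysis, or Jurkat lysate or a 1:1:1:1 HEK293/K-562/HepG2/placenta lysate mix received nine concentrations (top 30 μM, 1:5 steps) for 60 min at 4 °C.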

[2] = target: DDR1 (UniProt Q08345)
Chain of DDR1 (Q08345 whole entry): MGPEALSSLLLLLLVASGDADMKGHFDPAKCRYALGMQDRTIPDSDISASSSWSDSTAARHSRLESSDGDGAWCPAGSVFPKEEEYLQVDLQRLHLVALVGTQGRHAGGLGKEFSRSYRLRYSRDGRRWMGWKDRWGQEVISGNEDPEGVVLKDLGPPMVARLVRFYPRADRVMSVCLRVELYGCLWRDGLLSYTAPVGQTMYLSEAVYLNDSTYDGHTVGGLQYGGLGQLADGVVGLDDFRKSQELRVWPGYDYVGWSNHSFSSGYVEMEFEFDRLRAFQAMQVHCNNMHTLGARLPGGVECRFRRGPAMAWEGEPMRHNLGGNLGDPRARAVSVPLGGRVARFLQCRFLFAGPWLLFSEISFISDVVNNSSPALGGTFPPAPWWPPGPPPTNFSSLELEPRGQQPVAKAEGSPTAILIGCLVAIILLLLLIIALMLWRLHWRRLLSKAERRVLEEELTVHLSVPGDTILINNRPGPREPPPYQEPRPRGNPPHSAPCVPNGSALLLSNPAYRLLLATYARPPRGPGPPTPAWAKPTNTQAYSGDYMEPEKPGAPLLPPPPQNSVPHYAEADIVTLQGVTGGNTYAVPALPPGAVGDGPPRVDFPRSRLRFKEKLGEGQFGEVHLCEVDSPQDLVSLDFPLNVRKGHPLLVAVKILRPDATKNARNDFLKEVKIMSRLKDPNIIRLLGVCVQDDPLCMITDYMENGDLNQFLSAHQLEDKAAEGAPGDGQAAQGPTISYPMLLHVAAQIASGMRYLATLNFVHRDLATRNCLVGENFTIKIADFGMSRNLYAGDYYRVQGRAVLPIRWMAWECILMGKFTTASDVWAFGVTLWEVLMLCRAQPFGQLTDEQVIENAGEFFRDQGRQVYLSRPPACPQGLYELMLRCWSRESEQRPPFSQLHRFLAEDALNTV
Summary of the method: as §1

[3] = target: UniProt Q9Y2I7
Chain of UniProt Q9Y2I7 (Q9Y2I7 whole entry): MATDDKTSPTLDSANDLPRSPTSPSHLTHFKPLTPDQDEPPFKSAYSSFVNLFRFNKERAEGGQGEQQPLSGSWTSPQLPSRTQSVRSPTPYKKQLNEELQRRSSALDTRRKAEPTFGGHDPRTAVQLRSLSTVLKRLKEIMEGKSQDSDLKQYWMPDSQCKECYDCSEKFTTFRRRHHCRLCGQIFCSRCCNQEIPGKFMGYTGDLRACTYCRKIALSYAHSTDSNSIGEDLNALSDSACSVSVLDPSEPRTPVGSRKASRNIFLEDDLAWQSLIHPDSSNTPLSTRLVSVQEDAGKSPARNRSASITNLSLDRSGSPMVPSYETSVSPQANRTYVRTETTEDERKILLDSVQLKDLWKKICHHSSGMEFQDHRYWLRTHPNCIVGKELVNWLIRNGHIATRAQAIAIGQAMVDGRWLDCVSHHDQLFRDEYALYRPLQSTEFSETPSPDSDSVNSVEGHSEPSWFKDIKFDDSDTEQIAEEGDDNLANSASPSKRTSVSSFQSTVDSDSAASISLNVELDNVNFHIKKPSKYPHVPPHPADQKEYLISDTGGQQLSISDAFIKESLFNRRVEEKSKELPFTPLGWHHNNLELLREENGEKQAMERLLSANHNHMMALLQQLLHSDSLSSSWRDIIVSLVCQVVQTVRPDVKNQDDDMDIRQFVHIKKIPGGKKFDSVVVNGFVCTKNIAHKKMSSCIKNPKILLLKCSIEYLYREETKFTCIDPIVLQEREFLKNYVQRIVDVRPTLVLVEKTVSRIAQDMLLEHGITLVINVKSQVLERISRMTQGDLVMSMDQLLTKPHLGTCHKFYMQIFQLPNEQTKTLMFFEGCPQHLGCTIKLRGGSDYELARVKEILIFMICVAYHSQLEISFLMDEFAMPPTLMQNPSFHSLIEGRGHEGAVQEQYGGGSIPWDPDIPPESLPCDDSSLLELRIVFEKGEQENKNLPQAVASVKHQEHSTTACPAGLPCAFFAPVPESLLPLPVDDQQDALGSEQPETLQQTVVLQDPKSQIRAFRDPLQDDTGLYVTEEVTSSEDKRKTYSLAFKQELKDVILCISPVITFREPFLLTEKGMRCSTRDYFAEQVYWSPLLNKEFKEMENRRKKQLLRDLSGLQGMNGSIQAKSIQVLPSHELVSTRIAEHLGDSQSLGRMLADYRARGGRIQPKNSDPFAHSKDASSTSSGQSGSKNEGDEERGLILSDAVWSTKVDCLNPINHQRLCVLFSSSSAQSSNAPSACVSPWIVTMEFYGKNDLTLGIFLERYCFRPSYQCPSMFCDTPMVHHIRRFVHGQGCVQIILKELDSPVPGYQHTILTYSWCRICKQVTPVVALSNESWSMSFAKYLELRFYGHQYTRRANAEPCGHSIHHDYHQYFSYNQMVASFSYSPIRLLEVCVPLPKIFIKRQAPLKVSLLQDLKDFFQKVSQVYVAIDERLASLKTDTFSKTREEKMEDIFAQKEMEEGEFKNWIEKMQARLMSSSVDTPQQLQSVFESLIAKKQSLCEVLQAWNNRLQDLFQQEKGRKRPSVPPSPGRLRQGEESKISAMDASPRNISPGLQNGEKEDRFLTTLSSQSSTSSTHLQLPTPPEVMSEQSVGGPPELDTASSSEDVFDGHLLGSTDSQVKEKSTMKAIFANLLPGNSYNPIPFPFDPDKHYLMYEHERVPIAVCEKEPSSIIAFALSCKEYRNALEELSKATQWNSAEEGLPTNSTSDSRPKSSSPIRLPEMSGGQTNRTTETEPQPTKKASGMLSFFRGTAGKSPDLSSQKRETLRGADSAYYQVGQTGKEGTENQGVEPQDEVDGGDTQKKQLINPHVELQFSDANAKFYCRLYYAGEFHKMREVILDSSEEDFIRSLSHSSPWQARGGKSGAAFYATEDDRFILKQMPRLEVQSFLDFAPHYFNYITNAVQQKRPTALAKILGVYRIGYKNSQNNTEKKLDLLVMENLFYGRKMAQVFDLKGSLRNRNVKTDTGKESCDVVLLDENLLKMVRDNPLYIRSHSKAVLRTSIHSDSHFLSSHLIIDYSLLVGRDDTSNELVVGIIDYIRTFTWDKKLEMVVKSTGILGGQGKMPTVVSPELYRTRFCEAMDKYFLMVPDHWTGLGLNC
Summary of the method: as §1

[4] = target: T2, CDKL5 (UniProt O76039)
T2 sequence (whole entry): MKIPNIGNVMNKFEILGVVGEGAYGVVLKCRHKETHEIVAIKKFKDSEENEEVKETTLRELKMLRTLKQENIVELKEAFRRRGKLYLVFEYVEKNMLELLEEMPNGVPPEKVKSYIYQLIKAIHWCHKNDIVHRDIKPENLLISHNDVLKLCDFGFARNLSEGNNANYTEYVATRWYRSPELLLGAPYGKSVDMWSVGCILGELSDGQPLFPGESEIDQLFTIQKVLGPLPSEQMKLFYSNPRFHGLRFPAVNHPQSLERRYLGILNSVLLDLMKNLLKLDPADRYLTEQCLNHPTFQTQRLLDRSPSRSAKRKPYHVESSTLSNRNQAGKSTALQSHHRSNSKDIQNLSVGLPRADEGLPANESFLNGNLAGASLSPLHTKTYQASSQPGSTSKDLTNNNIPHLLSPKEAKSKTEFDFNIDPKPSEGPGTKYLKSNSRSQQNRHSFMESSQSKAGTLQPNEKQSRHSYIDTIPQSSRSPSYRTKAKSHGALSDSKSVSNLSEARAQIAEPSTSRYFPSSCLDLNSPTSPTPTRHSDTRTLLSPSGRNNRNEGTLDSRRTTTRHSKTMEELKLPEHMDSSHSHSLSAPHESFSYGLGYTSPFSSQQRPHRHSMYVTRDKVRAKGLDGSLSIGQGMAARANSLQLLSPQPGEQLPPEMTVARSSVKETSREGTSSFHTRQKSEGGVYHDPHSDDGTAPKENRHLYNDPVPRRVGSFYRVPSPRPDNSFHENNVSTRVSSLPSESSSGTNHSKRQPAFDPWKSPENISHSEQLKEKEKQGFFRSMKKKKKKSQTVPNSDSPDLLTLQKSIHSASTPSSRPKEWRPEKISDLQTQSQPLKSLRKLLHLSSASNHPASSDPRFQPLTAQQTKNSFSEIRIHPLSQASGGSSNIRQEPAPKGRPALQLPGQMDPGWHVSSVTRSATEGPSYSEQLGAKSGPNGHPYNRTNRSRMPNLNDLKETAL
Summary of the method: as §1

[5] = target: CAMK2B (UniProt Q13554); conditions: cell material: Lysate mix
Chain of CAMK2B (Q13554 whole entry): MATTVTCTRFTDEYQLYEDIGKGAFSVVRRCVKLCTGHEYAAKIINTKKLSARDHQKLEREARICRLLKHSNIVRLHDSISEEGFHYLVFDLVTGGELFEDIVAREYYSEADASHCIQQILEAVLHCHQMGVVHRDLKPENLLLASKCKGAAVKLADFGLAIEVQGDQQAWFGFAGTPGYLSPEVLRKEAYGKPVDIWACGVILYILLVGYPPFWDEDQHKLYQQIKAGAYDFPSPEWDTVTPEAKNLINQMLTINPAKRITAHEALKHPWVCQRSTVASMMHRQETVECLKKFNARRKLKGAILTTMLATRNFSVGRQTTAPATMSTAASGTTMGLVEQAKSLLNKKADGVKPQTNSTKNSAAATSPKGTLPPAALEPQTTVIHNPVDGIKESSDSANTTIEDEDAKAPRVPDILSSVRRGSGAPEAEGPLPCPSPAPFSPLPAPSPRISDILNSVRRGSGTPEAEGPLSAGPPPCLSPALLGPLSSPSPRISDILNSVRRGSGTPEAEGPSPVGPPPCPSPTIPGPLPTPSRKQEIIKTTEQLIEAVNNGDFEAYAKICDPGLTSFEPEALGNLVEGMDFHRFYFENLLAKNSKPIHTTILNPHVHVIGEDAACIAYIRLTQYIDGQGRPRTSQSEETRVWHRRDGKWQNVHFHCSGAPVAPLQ
Summary of the method: as §1

| pIC50 [1] | pIC50 ([2]; cell material: Lysate mix) | pIC50 ([3]; cell material: Lysate mix) | pIC50 ([4]; cell material: Lysate mix) | pIC50 [5] | Compound | pIC50 ([2]; cell material: Jurkat cells) | pIC50 ([2]; cell material: Jurkat lysate) | pIC50 ([3]; cell material: Jurkat cells) | pIC50 ([3]; cell material: Jurkat lysate) | pIC50 ([4]; cell material: Jurkat lysate) | pIC50 ([4]; cell material: Jurkat cells) |
| --- | --- | --- | --- | --- | --- | --- | --- | --- | --- | --- | --- |
| < 4.52 | < 4.52 | < 4.52 | 6.16 | < 4.52 | CCNC(=O)c1cc(Nc2cc(C3CC3)[nH]n2)nc(N2CCN(Cc3ccc(S(=O)(=O)F)cc3)CC2)n1 | – | – | – | – | – | – |
| < 4.52 | < 4.52 | < 4.52 | 5.11 | < 4.52 | CCNC(=O)c1cc(Nc2cc(C)[nH]n2)nc(N2CCN(Cc3ccc(S(=O)(=O)F)cc3)CC2)n1 | – | – | – | – | – | – |
| < 4.52 | < 4.52 | < 4.52 | 5.23 | < 4.52 | C#CCNC(=O)c1cc(Nc2cc(C)[nH]n2)nc(N2CCN(Cc3ccc(S(=O)(=O)F)cc3)CC2)n1 | – | – | – | – | – | – |

The next lines start with the compound.

| Compound | pIC50 [1] | pIC50 ([2]; cell material: Lysate mix) | pIC50 ([3]; cell material: Lysate mix) | pIC50 ([4]; cell material: Lysate mix) | pIC50 [5] | pIC50 ([2]; cell material: Jurkat cells) | pIC50 ([2]; cell material: Jurkat lysate) | pIC50 ([3]; cell material: Jurkat cells) | pIC50 ([3]; cell material: Jurkat lysate) | pIC50 ([4]; cell material: Jurkat lysate) | pIC50 ([4]; cell material: Jurkat cells) |
| --- | --- | --- | --- | --- | --- | --- | --- | --- | --- | --- | --- |
| O=C(NCCNC(=O)c1cc(Nc2cc(C3CC3)[nH]n2)nc(N2CCN(Cc3ccc(S(=O)(=O)F)cc3)CC2)n1)OC1CC/C=C/CCC1 (stereo unspecified) | < 4.52 | < 4.52 | < 4.52 | 5.12 | < 4.52 | < 4.52 | < 4.52 | < 4.52 | < 4.52 | 4.89 | – |
| Cc1cc(Nc2cc(C(=O)NCCNC(=O)OC3CC/C=C/CCC3)nc(N3CCN(Cc4ccc(S(=O)(=O)F)cc4)CC3)n2)n[nH]1 (stereo unspecified) | < 4.52 | < 4.52 | < 4.52 | < 4.52 | < 4.52 | – | – | – | – | – | – |
| C#CCNC(=O)c1cc(Nc2cc(C3CC3)[nH]n2)nc(N2CCN(Cc3ccc(S(=O)(=O)F)cc3)CC2)n1 | < 4.52 | < 4.52 | < 4.52 | 6.41 | < 4.52 | 5.54 | < 4.52 | 5.27 | < 4.52 | 5.95 | 6.89 |

From the supplement of paper PMC12076712
